Values quoted from earlier work in paper PMC7395068, “The evolution of strategies to minimise the risk of human drug-induced liver injury (DILI) in drug discovery and development” (Archives of Toxicology, 2020).
Like-named read-outs stand apart in the source and are kept apart here.

Columns and labels:
HepG2 cells [1] = conditions: In vitro Assay; ref Persson 2013; cited from earlier work
PHH spheroids = conditions: In vitro Assay; ref Vorrink 2018; cited from earlier work
[2] = cited from earlier work
[3] = test system: HepG2 cells, primary human hepatocytes; conditions: cited from earlier work
HepG2 cells [4] = conditions: In vitro Assay; ref O'Brien 2006; cited from earlier work
human hepatocytes = conditions: In vitro Assay; ref Xu 2008; cited from earlier work
[5] = ref Chen 2016; cited from earlier work
PHH = conditions: In vitro Assay; ref Proctor 2017; cited from earlier work
hLiMTs = conditions: In vitro Assay; ref Proctor 2017; cited from earlier work
[6] = test system: isolated mouse liver mitochondria; conditions: In vitro Assay; ref Porceddu 2012; cited from earlier work
rBsep = conditions: cited from earlier work
[7] = test system: THLE-Null and THLE-3A4 cells; conditions: In vitro Assay; ref Gustafsson 2014; cited from earlier work
[8] = test system: primary human hepatocytes, NIH3T3 fibroblasts, BSEP, CYP3A4; conditions: In vitro Assay; ref Schadt 2015; cited from earlier work
[9] = test system: THLE or HepG2 cells, isolated mitochondria, BSEP; conditions: In vitro Assay; ref Aleo 2019; cited from earlier work
[10] = In vitro Assay, ref Garside 2014
[11] = In vitro Assay, ref Dawson 2012

CCN(CC)Cc1cc(Nc2ccnc3cc(Cl)ccc23)ccc1O [amodiaquine]
+VE (IC20 < 20 × Cmax.tot cut-off): hLiMTs ATP <20 x Cmax (PHH spheroids)
+VE: Cluser analysis (HepG2 cells [1]) | In vivo DILI ([2]; […]) | In vivo DILI ([2]; ref Garside 2014) | In vivo DILI ([2]; ref Gustafsson 2014) | In vivo DILI ([2]; ref O'Brien 2006) | In vivo DILI ([2]; ref Persson 2013) | In vivo DILI ([2]; ref Proctor 2017) | In vivo DILI ([2]; ref Schadt 2015) | In vivo DILI ([2]; ref Vorrink 2018) | In vivo DILI ([2]; ref Williams 2019) | Cluster 1-6 +VE Assay [3, 10]

COc1ccc(CCN2CCC(Nc3nc4ccccc4n3Cc3ccc(F)cc3)CC2)cc1 [astemizole]
-VE: Structural based (HCI) (HepG2 cells [4]) | Structural based (HCI) (human hepatocytes) | In vivo DILI ([2]; ref O'Brien 2006) | In vivo DILI ([2]; ref Xu 2008)
+VE: In vivo DILI ([2]; ref Garside 2014) | Cluster 1-6 +VE Assay [3, 10]

[N-]=[N+]=CC(=O)OC[C@H](N)C(=O)O [azaserine]
-VE: Structural based (HCI) (human hepatocytes)
+VE: Cluster 1-6 +VE Assay [3, 10]

CC[C@H]1OC(=O)[C@H](C)[C@@H](O[C@H]2C[C@@](C)(OC)[C@@H](O)[C@H](C)O2)[C@H](C)[C@@H](O[C@@H]2O[C@H](C)C[C@H](N(C)C)[C@H]2O)[C@](C)(O)C[C@@H](C)CN(C)[C@H](C)[C@@H](O)[C@]1(C)O [azithromycin]
vLess-DILI-Concern: DILI severity category [5]
+VE: DILI +VE (5-8), DILI -VE (-4) [5] | In vivo DILI ([2]; […]) | In vivo DILI ([2]; ref Garside 2014) | Cluster 1-6 +VE Assay [3, 10]
-VE: Structural based (HCI) (human hepatocytes) | In vivo DILI ([2]; ref Xu 2008)

NC(CO)C(=O)NNCc1ccc(O)c(O)c1O (stereo not drawn) [benserazide]
-VE: PHH ATP <100uM (PHH) | hLiMTs ATP <100uM (hLiMTs) | In vivo DILI ([2]; ref Garside 2014) | In vivo DILI ([2]; ref Proctor 2017) | In vivo DILI ([2]; ref Schadt 2015) | Cluster 1-6 +VE Assay [3, 10]

CC(=O)Oc1ccc(C(c2ccc(OC(C)=O)cc2)c2ccccn2)cc1 [bisacodyl]
+VE: Structural based (HCI) (HepG2 cells [4]) | Cluster 1-6 +VE Assay [3, 10] | in vitro data EC20<=2uM [6]
vNo-DILI-Concern: DILI severity category [5]
-VE: DILI +VE (5-8), DILI -VE (-4) [5] | Cluser analysis (HepG2 cells [1]) | Structural based (HCI) (HepG2 cells [1]) | In vivo DILI ([2]; ref Garside 2014) | In vivo DILI ([2]; ref O'Brien 2006) | In vivo DILI ([2]; ref Persson 2013) | In vivo DILI ([2]; ref Porceddu 2012) | in vitro data EC2<=1x Cmax [6]

CCCCNc1cc(C(=O)O)cc(S(N)(=O)=O)c1Oc1ccccc1 [bumetanide]
+VE: Structural based (HCI) (human hepatocytes)
-VE: hLiMTs ATP <20 x Cmax (PHH spheroids) | Cluster 1-6 +VE Assay [3, 10]

Cn1c(=O)c2c(ncn2C)n(C)c1=O [caffeine]
+VE: in vitro data EC2<=1x Cmax [6]
-VE: Cluster 1-6 +VE Assay [3]

O=NN(CCCl)C(=O)NCCCl [carmustine]
-VE: Inhibition of rBsep cutoff<3 (rBsep; [11]) | Inhibition of rBsep cutoff<1& cmax u>.2 (rBsep)
+VE: Cluster 1-6 +VE Assay [3]

O=C(O)c1cc(=O)c2c(OCC(O)COc3cccc4oc(C(=O)O)cc(=O)c34)cccc2o1 [cromolyn]
-VE: Structural based (HCI) (human hepatocytes) | Cluster 1-6 +VE Assay [3, 10] | Inhibition of rBsep cutoff<1& cmax u>.2 (rBsep; [11]) | Inhibition of rBsep cutoff<3 (rBsep; [11])

Nc1ccc(S(=O)(=O)c2ccc(N)cc2)cc1 [dapsone]
-VE: Structural based (HCI) (human hepatocytes) | in vitro data EC20<=2uM [6] | Inhibition of rBsep cutoff<1& cmax u>.2 (rBsep; [11]) | Inhibition of rBsep cutoff<3 (rBsep; [11])
vLess-DILI-Concern: DILI severity category [5]
+VE: DILI +VE (5-8), DILI -VE (-4) [5] | In vivo DILI ([2]; […]) | In vivo DILI ([2]; ref Dawson 2012) | In vivo DILI ([2]; ref Garside 2014) | In vivo DILI ([2]; ref Gustafsson 2014) | In vivo DILI ([2]; ref Khetani 2012) | In vivo DILI ([2]; ref Porceddu 2012) | In vivo DILI ([2]; ref Xu 2008) | Cluster 1-6 +VE Assay [3, 10] | in vitro data EC2<=1x Cmax [6]

Cc1nc(Nc2ncc(C(=O)Nc3c(C)cccc3Cl)s2)cc(N2CCN(CCO)CC2)n1 [dasatinib]
vLess-DILI-Concern: DILI severity category [5]
-VE: in vitro data EC2<=1x Cmax [6]
+VE: DILI +VE (5-8), DILI -VE (-4) [5] | In vivo DILI ([2]; ref Garside 2014) | In vivo DILI ([2]; ref Porceddu 2012) | Cluster 1-6 +VE Assay [3, 10] | in vitro data EC20<=2uM [6]

O=c1[nH]cc(F)c(=O)[nH]1 [fluorouracil]
vLess-DILI-Concern: DILI severity category [5]
+VE: DILI +VE (5-8), DILI -VE (-4) [5] | In vivo DILI ([2]; ref Garside 2014) | Cluster 1-6 +VE Assay [3, 10]

CC(=O)O[C@H]1C[C@@]2(C)[C@@H](C[C@@H](O)[C@H]3[C@@]4(C)CC[C@@H](O)[C@@H](C)[C@@H]4CC[C@@]32C)/C1=C(\CCC=C(C)C)C(=O)O [fusidic acid]
-VE: Cluster 1-6 +VE Assay [3, 10]
+VE: THLE-Null [7] | Inhibition of rBsep cutoff<1& cmax u>.2 (rBsep; [11]) | Inhibition of rBsep cutoff<3 (rBsep; [11])

CCN(CC)CCNc1ccc(CO)c2sc3ccccc3c(=O)c12 [hycanthone]
+VE: Structural based (HCI) (human hepatocytes) | In vivo DILI ([2]; […]) | In vivo DILI ([2]; ref Garside 2014) | In vivo DILI ([2]; ref Xu 2008) | Cluster 1-6 +VE Assay [3, 10]

CC[C@@H](C(N)=O)N1CCCC1=O [levetiracetam]
+VE: DILI +VE (5-8), DILI -VE (-4) [5] | In vivo DILI ([2]; ref Garside 2014) | Cluster 1-6 +VE Assay [3, 10]
vLess-DILI-Concern: DILI severity category [5]

CCCCc1nc(Cl)c(CO)n1Cc1ccc(-c2ccccc2-c2nn[nH]n2)cc1 [losartan]
+VE: Combined Assay [8] | GSH adduct HML [8] | Hepatocyte cellular toxicity [8] | hBSEP inhibition [8] | Partition Hybrid HRM Score [9] | Ro2 Hybrid HRM Score [9] | Cluster 1-6 +VE Assay [3, 10]
-VE: Cellular toxicity (3T3 cells) [8] | MitoTox 3T3 [8] | TDI CYP3A4 [8]

O=C1c2c(O)ccc(O)c2C(=O)c2c(NCCNCCO)ccc(NCCNCCO)c21 [mitoxantrone]
-VE: in vitro data EC2<=1x Cmax [6]
+VE: Structural based (HCI) (human hepatocytes) | Cluster 1-6 +VE Assay [3, 10]

CN(CCOc1ccc(CC2SC(=O)NC2=O)cc1)c1ccccn1 (stereo not drawn) [rosiglitazone]
+VE: DILI +VE (5-8), DILI -VE (-4) [5] | In vivo DILI ([2]; ref Aleo 2019) | In vivo DILI ([2]; ref Dawson 2012) | In vivo DILI ([2]; ref Garside 2014) | In vivo DILI ([2]; ref Gustafsson 2014) | In vivo DILI ([2]; ref Proctor 2017) | In vivo DILI ([2]; ref Schadt 2015) | In vivo DILI ([2]; ref Williams 2019) | Cluster 1-6 +VE Assay [3, 10] | Inhibition of rBsep cutoff<3 (rBsep; [11])
-VE: Structural based (HCI) (HepG2 cells [4]) | Structural based (HCI) (human hepatocytes) | PHH ATP <100uM (PHH) | hLiMTs ATP <20 x Cmax (PHH spheroids) | In vivo DILI ([2]; […]) | In vivo DILI ([2]; ref O'Brien 2006) | In vivo DILI ([2]; ref Vorrink 2018) | In vivo DILI ([2]; ref Xu 2008) | Inhibition of rBsep cutoff<1& cmax u>.2 (rBsep; [11])
+VE (IC50 threshold of 100 µM): hLiMTs ATP <100uM (hLiMTs)
vLess-DILI-Concern: DILI severity category [5]

CC(C)(C)NCC(O)c1cc(O)cc(O)c1 (stereo not drawn) [terbutaline]
+VE: DILI +VE (5-8), DILI -VE (-4) [5] | In vivo DILI ([2]; ref Garside 2014) | Cluster 1-6 +VE Assay [3, 10]
vLess-DILI-Concern: DILI severity category [5]

CCCCNC(=O)NS(=O)(=O)c1ccc(C)cc1 [tolbutamide, reference compound]
+VE: Structural based (HCI) (HepG2 cells [4]) | Cluster 1-6 +VE Assay [3, 10]
-VE: Inhibition of rBsep cutoff<1& cmax u>.2 (rBsep; [11]) | Inhibition of rBsep cutoff<3 (rBsep; [11])
